In publication PMC11274987, “Synthesis of Chiral Acyclic Pyrimidine Nucleoside Analogues from DHAP-Dependent Aldolases” (Biomolecules, 2024):

Key:
[1] = target: T1, TmRhu-1PA (Thermotoga maritima, UniProt Q9X0G1); assay: aldol addition, HPLC and NMR of products; type: biochemical; conditions: acceptor; co-substrate DHAP; 20 mM phosphate pH 6.8, 45 °C
T1 construct: gene TM_1072; recombinant, cloned, expressed and purified as in earlier work (heat step at 80 °C, cobalt salts present)
T1 sequence (Q9X0G1 1-236): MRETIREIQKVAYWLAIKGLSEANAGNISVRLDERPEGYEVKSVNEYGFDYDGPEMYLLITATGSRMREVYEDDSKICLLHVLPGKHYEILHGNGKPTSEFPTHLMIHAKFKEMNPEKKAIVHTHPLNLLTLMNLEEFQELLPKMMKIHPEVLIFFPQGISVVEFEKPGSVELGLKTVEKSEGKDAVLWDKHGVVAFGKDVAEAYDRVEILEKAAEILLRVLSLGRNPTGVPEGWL

[2] = target: T2, RAMA (Oryctolagus cuniculus, UniProt P00883); assay: aldol addition, HPLC and NMR of products; type: biochemical; conditions: acceptor; co-substrate DHAP; 20 mM phosphate pH 6.8, 30 °C
T2 construct: gene ALDOA; commercial native enzyme from rabbit muscle (Sigma-Aldrich)
T2 sequence (P00883 2-364): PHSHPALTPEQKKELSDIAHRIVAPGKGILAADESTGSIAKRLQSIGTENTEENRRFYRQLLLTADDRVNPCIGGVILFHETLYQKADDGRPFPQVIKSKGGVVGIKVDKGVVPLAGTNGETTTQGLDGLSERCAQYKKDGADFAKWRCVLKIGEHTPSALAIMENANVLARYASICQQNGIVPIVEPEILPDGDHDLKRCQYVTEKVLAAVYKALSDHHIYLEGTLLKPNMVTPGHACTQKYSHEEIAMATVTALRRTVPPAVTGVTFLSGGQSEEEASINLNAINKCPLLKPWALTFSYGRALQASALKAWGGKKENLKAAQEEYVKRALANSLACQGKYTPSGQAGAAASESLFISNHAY

Compound | aldol addition, HPLC and NMR of products [1] | aldol addition, HPLC and NMR of products [2]
Cc1cn(CC=O)c(=O)[nH]c1=O [1a, thyminyl acetaldehyde] | biotransformation with the thymine derivative (1a) and TmRhu-1PA as a biocatalyst | 
Nc1ccn(CC=O)c(=O)n1 [1b, cytosyl acetaldehyde] |  | A similar reaction profile was observed when the cytosine derivative
